The source of these data is article PMC3604760 (mBio, 2013).

Molecules are shown by their SMILES.

Assay [1] has as its target MBP-cTlp1 (Azospirillum brasilense, UniProt Q64I05, R562A). The assay is described as follows: equilibrium dialysis, HPLC quantification. In kind it is binding. A general note: In equilibrium dialysis free small molecules cross a membrane that holds back macromolecules.
In assay [2] the target is MBP-cTlp1 (Azospirillum brasilense, UniProt Q64I05). The assay is described as follows: equilibrium dialysis, HPLC quantification. It is filed as binding.
Chain of MBP-cTlp1 (Azospirillum brasilense, UniProt Q64I05) (Q64I05 344-660): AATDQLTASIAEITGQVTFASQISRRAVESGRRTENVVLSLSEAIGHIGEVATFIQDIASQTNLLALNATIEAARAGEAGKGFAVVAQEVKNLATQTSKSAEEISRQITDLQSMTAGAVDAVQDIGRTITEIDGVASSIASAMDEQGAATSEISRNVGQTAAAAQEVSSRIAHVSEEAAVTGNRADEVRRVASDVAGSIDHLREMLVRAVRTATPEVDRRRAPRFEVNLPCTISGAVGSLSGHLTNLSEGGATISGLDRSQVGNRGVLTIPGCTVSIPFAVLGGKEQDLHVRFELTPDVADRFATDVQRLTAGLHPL

Chain of MBP-cTlp1 (Azospirillum brasilense, UniProt Q64I05, R562A) (Q64I05 344-660 R562A): as the sequence (Q64I05 344-660) above, with R219A counted along it

With `Nc1nc2c(ncn2[C@@H]2O[C@@H]3CO[P@](=O)(O)O[C@H]4[C@@H](O)[C@H](n5cnc6c(=O)[nH]c(N)nc65)O[C@@H]4CO[P@](=O)(O)O[C@H]3[C@H]2O)c(=O)[nH]1` [c-di-GMP], the Kd (as a rule, the free concentration of one partner at which half of the binding sites on the other are occupied at equilibrium, for simple one-to-one binding) on MBP-cTlp1 [1] amounted to 21.8 ± 7.1 µM; at MBP-cTlp1 [2], 6.9 ± 1.2 µM.
